Columns and labels:
Format in all cases: ADME
[1] = molecular target: T1, CYP2C9 (Homo sapiens, UniProt P11712); assay: Inhibition of CYP2C9 in human liver microsomes assessed as enzyme-mediated metabolite formation at 0.1 uM using diclofenac as substrate incubated for 5 mins followed by NADPH addition measured after 30 mins by LC-MS/MS analysis relative to control; design: scale not given: the % may be the effect or the level left; details: probe diclofenac, read-out: Activity
[2] = molecular target: T1, CYP2C9; assay: Inhibition of CYP2C9 in human liver microsomes assessed as enzyme-mediated metabolite formation at 10 uM using diclofenac as substrate incubated for 5 mins followed by NADPH addition measured after 30 mins by LC-MS/MS analysis relative to control; design: scale not given: the % may be the effect or the level left; details: probe diclofenac, read-out: Activity
[3] = molecular target: Cytochrome P450 3A4 (Homo sapiens, UniProt P08684); assay: Inhibition of CYP3A4 in human liver microsomes assessed as enzyme-mediated metabolite formation using midazolam as substrate incubated for 5 mins followed by NADPH addition measured after 30 mins by LC-MS/MS analysis
Sequence of Cytochrome P450 3A4 (P08684 whole entry): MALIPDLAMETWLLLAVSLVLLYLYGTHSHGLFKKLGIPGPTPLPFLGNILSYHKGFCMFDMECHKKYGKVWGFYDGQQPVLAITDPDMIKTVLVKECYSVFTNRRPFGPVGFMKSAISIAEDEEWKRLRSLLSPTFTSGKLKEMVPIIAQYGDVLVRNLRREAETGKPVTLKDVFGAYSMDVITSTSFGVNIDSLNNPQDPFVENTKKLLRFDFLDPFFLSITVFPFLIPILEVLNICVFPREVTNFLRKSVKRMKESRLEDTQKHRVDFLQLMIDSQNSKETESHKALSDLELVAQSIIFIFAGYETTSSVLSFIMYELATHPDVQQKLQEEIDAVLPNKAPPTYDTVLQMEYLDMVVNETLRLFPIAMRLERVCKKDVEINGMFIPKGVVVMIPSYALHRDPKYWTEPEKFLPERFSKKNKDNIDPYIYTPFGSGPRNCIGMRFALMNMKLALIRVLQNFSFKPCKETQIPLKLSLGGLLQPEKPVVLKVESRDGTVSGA

[4] = molecular target: T2, CYP1A2 (Homo sapiens, UniProt P05177); assay: Inhibition of CYP1A2 in human liver microsomes assessed as enzyme-mediated metabolite formation at 1 uM using phenacetin as substrate incubated for 5 mins followed by NADPH addition measured after 30 mins by LC-MS/MS analysis relative to control; design: scale not given: the % may be the effect or the level left; details: probe phenacetin, read-out: Activity
T2 sequence (P05177 whole entry): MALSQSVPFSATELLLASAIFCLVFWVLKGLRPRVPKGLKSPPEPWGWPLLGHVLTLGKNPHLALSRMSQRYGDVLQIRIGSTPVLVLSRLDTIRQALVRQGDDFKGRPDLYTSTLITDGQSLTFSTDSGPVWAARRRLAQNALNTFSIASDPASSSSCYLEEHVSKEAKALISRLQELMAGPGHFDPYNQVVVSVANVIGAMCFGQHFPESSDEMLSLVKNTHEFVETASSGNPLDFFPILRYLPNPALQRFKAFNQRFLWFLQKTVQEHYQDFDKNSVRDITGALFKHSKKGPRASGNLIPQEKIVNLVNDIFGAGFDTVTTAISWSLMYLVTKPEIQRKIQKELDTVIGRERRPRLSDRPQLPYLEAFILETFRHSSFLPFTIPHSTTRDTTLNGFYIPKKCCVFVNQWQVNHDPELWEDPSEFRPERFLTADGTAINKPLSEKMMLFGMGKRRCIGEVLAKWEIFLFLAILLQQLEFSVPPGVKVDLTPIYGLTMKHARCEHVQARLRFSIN

[5] = molecular target: T3, CYP3A4 (Homo sapiens, UniProt P08684); assay: Inhibition of CYP3A4 in human liver microsomes assessed as enzyme-mediated metabolite formation at 30 uM using testosterone as substrate preincubated for 20 mins followed by substrate addition measured after 30 mins in presence of NADPH by LC-MS/MS analysis relative to control; design: scale not given: the % may be the effect or the level left; details: probe testosterone, read-out: Activity
T3 sequence (P08684 whole entry): as the sequence (P08684 whole entry) above

[6] = molecular target: T4, CYP2C8 (Homo sapiens, UniProt P10632); assay: Inhibition of CYP2C8 in human liver microsomes assessed as enzyme-mediated metabolite formation at 3 uM using paclitaxel as substrate preincubated for 20 mins followed by substrate addition measured after 30 mins in presence of NADPH by LC-MS/MS analysis relative to control; design: scale not given: the % may be the effect or the level left; details: probe paclitaxel, read-out: Activity
T4 sequence (P10632 whole entry): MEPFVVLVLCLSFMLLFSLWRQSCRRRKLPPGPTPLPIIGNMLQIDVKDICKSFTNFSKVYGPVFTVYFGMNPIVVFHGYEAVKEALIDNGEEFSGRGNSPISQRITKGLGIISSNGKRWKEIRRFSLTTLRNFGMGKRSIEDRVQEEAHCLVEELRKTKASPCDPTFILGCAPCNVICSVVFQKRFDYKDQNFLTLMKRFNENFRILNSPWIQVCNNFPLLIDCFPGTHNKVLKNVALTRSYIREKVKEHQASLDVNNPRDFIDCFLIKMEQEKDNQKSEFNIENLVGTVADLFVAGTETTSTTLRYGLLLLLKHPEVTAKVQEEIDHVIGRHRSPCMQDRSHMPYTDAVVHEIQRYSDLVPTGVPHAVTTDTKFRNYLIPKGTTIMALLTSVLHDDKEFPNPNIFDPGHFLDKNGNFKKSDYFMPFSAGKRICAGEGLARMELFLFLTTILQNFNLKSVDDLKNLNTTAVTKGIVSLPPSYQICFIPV

[7] = molecular target: CYP2C19 (Homo sapiens, UniProt P33261); assay: Inhibition of CYP2C19 in human liver microsomes assessed as enzyme-mediated metabolite formation at 30 uM using (S)-mephenytoin as substrate incubated for 5 mins followed by NADPH addition measured after 30 mins by LC-MS/MS analysis relative to control; design: scale not given: the % may be the effect or the level left; details: probe (S)-mephenytoin, read-out: Activity
Sequence of CYP2C19 (P33261 whole entry): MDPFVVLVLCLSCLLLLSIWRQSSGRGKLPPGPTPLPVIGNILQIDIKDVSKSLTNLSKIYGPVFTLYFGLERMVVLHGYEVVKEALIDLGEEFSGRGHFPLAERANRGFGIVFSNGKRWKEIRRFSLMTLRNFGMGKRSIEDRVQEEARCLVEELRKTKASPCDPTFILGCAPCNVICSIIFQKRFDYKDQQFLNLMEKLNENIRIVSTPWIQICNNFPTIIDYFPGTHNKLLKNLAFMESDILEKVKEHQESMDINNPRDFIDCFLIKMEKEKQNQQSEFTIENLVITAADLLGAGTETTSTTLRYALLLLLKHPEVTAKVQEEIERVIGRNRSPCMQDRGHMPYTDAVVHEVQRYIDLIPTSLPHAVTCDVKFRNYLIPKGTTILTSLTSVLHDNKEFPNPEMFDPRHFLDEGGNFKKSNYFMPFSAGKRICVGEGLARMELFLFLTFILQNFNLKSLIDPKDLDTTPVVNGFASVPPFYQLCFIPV

[8] = molecular target: T5, CYP2B6 (Homo sapiens, UniProt P20813); assay: Inhibition of CYP2B6 in human liver microsomes assessed as enzyme-mediated metabolite formation at 10 uM using bupropion as substrate preincubated for 20 mins followed by substrate addition measured after 30 mins in presence of NADPH by LC-MS/MS analysis relative to control; design: scale not given: the % may be the effect or the level left; details: probe bupropion, read-out: Activity
T5 sequence (P20813 whole entry): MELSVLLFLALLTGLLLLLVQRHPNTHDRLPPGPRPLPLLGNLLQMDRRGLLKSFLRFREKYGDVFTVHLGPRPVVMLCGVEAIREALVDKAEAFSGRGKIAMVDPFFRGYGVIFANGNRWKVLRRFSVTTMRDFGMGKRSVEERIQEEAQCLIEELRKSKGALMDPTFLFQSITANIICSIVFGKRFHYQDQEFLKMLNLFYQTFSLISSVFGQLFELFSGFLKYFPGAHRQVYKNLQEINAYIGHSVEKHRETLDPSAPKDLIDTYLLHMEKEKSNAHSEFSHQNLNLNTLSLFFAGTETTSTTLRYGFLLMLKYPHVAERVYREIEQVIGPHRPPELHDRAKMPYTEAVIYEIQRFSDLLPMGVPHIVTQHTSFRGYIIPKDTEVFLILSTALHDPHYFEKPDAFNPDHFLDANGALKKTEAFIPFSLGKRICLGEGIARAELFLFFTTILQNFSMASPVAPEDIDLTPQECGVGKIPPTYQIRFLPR

[9] = molecular target: T4, CYP2C8; assay: Inhibition of CYP2C8 in human liver microsomes assessed as enzyme-mediated metabolite formation at 1 uM using paclitaxel as substrate preincubated for 20 mins followed by substrate addition measured after 30 mins in presence of NADPH by LC-MS/MS analysis relative to control; design: scale not given: the % may be the effect or the level left; details: probe paclitaxel, read-out: Activity
[10] = molecular target: T3, CYP3A4; assay: Inhibition of CYP3A4 in human liver microsomes assessed as enzyme-mediated metabolite formation at 30 uM using midazolam as substrate preincubated for 20 mins followed by substrate addition measured after 30 mins in presence of NADPH by LC-MS/MS analysis relative to control; design: scale not given: the % may be the effect or the level left; details: probe midazolam, read-out: Activity
[11] = molecular target: T4, CYP2C8; assay: Inhibition of CYP2C8 in human liver microsomes assessed as enzyme-mediated metabolite formation at 0.1 uM using paclitaxel as substrate preincubated for 20 mins followed by substrate addition measured after 30 mins in presence of NADPH by LC-MS/MS analysis relative to control; design: scale not given: the % may be the effect or the level left; details: probe paclitaxel, read-out: Activity
[12] = molecular target: Cytochrome P450 2C9 (Homo sapiens, UniProt P11712); assay: Inhibition of CYP2C9 in human liver microsomes using diclofenac as substrate preincubated for 20 mins followed by substrate addition measured after 30 mins in presence of NADPH by LC-MS/MS analysis
Sequence of Cytochrome P450 2C9 (P11712 whole entry): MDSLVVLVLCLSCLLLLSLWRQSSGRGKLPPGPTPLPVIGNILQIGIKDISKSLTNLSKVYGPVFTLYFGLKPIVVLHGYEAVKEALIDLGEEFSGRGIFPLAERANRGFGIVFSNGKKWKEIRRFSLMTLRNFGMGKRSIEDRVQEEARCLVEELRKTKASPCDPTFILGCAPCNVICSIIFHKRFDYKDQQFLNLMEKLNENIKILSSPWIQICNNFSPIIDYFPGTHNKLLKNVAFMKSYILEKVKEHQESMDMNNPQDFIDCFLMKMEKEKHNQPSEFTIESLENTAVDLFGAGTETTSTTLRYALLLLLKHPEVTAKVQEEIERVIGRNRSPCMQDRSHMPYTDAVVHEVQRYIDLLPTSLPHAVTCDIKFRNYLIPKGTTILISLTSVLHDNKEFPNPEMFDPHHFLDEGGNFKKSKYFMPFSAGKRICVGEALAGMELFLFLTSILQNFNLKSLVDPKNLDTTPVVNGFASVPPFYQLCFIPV

T1 sequence (P11712 whole entry): as above

CCCCCCCC(=O)CCc1ccc(O)c(OC)c1
activity at 0.5 h, 0.1 µM [1]: 120% | activity at 0.5 h, 10 µM [2]: 52.3% | IC50 [3]: > 30 µM | activity at 0.5 h, 1 µM [4]: 79.2% | activity at 0.5 h, 30 µM [5]: 62.3% | activity at 0.5 h, 3 µM [6]: 56.6% | activity at 0.5 h, 30 µM [7]: 42% | activity at 0.5 h, 10 µM [8]: 54.3% | activity at 0.5 h, 1 µM [9]: 61.5% | activity at 0.5 h, 30 µM [10]: 97.6% | activity at 0.5 h, 0.1 µM [11]: 83.2% | IC50 [12]: 9.9 µM

Reference: ChEMBL document CHEMBL4007467, “Effects of 6-paradol, an unsaturated ketone from gingers, on cytochrome P450-mediated drug metabolism” (Bioorg Med Chem Lett, 2017)
